{"source": "patent US11702629B2", "about": "“Acceleration of stem cell differentiation” (Regents of the University of Minnesota, priority 2017, dated 2023)", "key": {"[1]": {"system": "human pluripotent stem cells", "assay": "Accelerated neural induction of hPSCs/hiPSCs into neuroepithelium, 24 hours (NANOG/SOX2/SOX1/PAX6 immunostaining)", "type": "cell-based", "conditions": "for Effect on NE formation of inhibitors of FGF signaling cascade components: standard neuralizing conditions", "description": "Prior to passaging, a recombinant human vitronectin stock solution (500 ug/mL, Peprotech AF-140-09, Rocky Hill, N.J., USA) was diluted 1:100 in DPBS+/+ (ThermoFisher Scientific cat #14040-133, Waltham, Mass., USA) and used to coat 9.6 cm^2 tissue-culture treated wells (Fischer Scientific, Hampton, N.H.) for one hour at room temperature. hPSCs were washed once with 1 mL hypertonic citrate buffer (11) or equivalent and then incubated with 1 mL hypertonic citrate buffer (11) at 37° C. for 6 minutes until colony detachment occurred. The colonies were collected and processed into 25-50 cell fragments by trituration and the dissociation quenched with 5 mL Essential 6 Medium (ThermoFisher Scientific A1516401, Waltham, Mass., USA). Suspensions were collected into 15 mL conical tubes and centrifuged for 1 minute at 200×G. Supernatants were aspirated and pellets resuspended into 1.2 mL Essential 6 Medium (ThermoFisher Scientific A2858501, Waltham, Mass., USA) assuming a 1:6 split ratio. 0.2 mL cultures were seeded onto rhVTN-coated wells containing Essential 8 Medium. Cultures were maintained in Essential 8 Medium with daily media changes and passaged every 3 days.\n(§1) Differentiation medium consisting of Essential 6 supplemented with LDN-193189 HCl (500 nM, Selleckchem cat #S7507, Houston, Tex. USA) and BGJ398 (100 nM Selleckchem cat #S2183 Houston, Tex. USA) was combined and distributed 2 mL per vitronectin-coated well of a 6-well plate. hPSCs were dissociated into small clumps (25-50 cells per clump) as indicated above. 0.2 to 0.4 mL cultures were seeded onto rhVTN-coated wells containing differentiation medium.\nConditions were assayed in which the ERK pathway was inhibited at both receptor and downstream intracellular effector levels. The VEGFR2/FGFR2 inhibitor SU5402 was compounded with previously known neurulation conditions containing the ALK2/3 receptor antagonist LDN 193189 and the ALK 4/5/7 receptor antagonist A8-30-1 to observe their combined effect on undifferentiated pluripotent stem cells.\n24-hour differentiating cultures were analyzed prior to cell death for various transcription factors associated with pluripotency and NE formation. […] SOX2, common to both hPSCs and NE, was maintained."}, "day-2 neuromesoderm": {"system": "day-2 neuromesoderm", "assay": "Conversion of day-2 neuromesoderm into spinal neuroepithelium", "type": "cell-based, human", "conditions": "day 3", "description": "Day-one Neuromesoderm progenitors were exposed to differentiation medium consisting of Essential 6 supplemented with CHIR 99021 (3 uM, Tocris cat #4423, Bristol UK) and FGF-Basic TS™ (20 ng/mL, Humanzyme cat #HZ-1286, Chicago, Ill. USA) for 24 hours. This day-two neuromesoderm was further exposed to differentiation medium consisting of Essential 6 supplemented with BGJ398 (100 nM Selleckchem cat #52183 Houston, Tex. USA) to create a day-three population of PAX3/SOX1/HOXB4-positive neuroepithelial cells.\nIt has been shown that retinoic acid signaling is needed to convert neuromesoderm into spinal cord neuroepithelium. […] It has been shown that retinoids exert multiple simultaneous functions in the developing spinal cord, inhibiting FGF signaling, while activating both WNT and SHH signaling. […] This spinal neuroepithelium was further characterized with respect to additional markers and discovered that it was partially PAX3-positive, an early spinal neural plate marker. The day-3 conditions were optimized to maximize PAX3 and it was discovered that moderate WNT signaling was needed in addition to FGF inhibition to derive a pure population of cervical neural plate epithelium homogeneously expression PAX3 (FIG. 18). To investigate the dorso-ventral patterning competency of these retinoid-independent spinal neuroepithelial cells, the day-3 cultures were exposed to SHH signaling. […]"}, "[2]": {"system": "human pluripotent stem cells", "assay": "Accelerated production of neuromesoderm progenitors directly from hPSCs, 24 hours (SOX2/T immunophenotype)", "type": "cell-based", "description": "as §1, with “Houston, Tex. USA), BGJ398 (100” for “Houston, Tex. USA) and BGJ398 (100”, “#S2183 Houston, and TX USA), and CHIR 99021 (3 uM, Tocris cat #4423, Bristol UK) was combined” for “#S2183 Houston, Tex. USA) was combined”\nThe previous scenario utilized a neuroectoderm intermediate for the generation of neuromesoderm. Because it has been shown that neuromesoderm can be derived directly from hPSCs, high levels of WNT signaling were incorporated into the day-1 neuroectoderm conditions to investigate whether this could induce neuromesoderm directly."}, "day-1 neuroectoderm": {"system": "day-1 neuroectoderm", "assay": "Caudalization of day-1 neuroectoderm into neuromesoderm", "type": "cell-based, human", "conditions": "by day 2", "description": "Controversy currently exists surrounding the origin of the most caudal segments of the central nervous system that include the spinal cord. In vitro conditions for generating spinal cord tissue have traditionally relied upon the formation of anterior neural plate expressing SOX1+/FOXG1+/OTX2+/PAX5−/HOXB4− that is caudalized with factors such as FGF, WNT, and retinoic acid to create SOX1+/FOXG1−/OTX2−/PAX5−/HOXB4+ positive cervical spinal cord tissue. […] An additional 24 hours of WNT/FGF signaling converted this population into SOX1−/SOX2+/T+/TBX6−/HOXB4+ cervical-level neuromesoderm (FIG. 13)."}, "[3]": {"conditions": "24-hour cultures, SU5402 with LDN 193189 and A8-30-1"}}, "note": "“Also recorded” adds a separate entry of the source."}
{"smiles": "CCN1CCN(c2ccc(Nc3cc(N(C)C(=O)Nc4c(Cl)c(OC)cc(OC)c4Cl)ncn3)cc2)CC1", "note": "[BGJ398, 3-(2,6-dichloro-3,5-dimethoxyphenyl)-1-(6-(4-(4-ethylpiperazin-1-yl)-phenylamino)pyrimidin-4-yl)-1-methylurea]", "values": [{"measurement": "Induction of SOX1-immunoreactivity when substituted for SU5402 in the inhibitor cocktail", "setting": "[1]; 24 hours, panel of hPSC lines", "result": "matches or exceeds marker expression levels seen when using SU5402"}, {"measurement": "Population created from day-2 neuromesoderm", "setting": "day-2 neuromesoderm", "result": "created a pure population of spinal neuroepithelium lacking evidence of neuromesoderm or somite tissues"}]}
{"smiles": "Cc1c[nH]c(-c2cnc(NCCNc3ccc(C#N)cn3)nc2-c2ccc(Cl)cc2Cl)n1", "note": "[CHIR99021]", "values": [{"measurement": "HOXB4 expression of day-2 cultures", "setting": "[2]; additional 24 hours incubation after day-1 neuromesoderm induction", "result": "upregulated the HOXB4 transcription factor"}, {"measurement": "Population induced from day-1 neuroectoderm by high WNT signaling", "setting": "day-1 neuroectoderm", "result": "sufficient to induce a SOX1−/SOX2+/T+/TBX6−/HOXB4− population by day 2"}]}
{"smiles": "O=C(NOC[C@H](O)CO)c1ccc(F)c(F)c1Nc1ccc(I)cc1F", "note": "[PD0325901, N-[(2R)-2,3-Dihydroxypropoxy]-3,4-difluoro-2-[(2-fluoro-4-iodophenyl)amino]-benzamide]", "values": [{"measurement": "Effect on NE formation of inhibitors of FGF signaling cascade components", "setting": "[1]", "result": "performed similarly to BGJ398; also recorded: substitutes for SU5402"}, {"measurement": "Replacement of BGJ398 in neural induction", "setting": "[1]; with LDN 193189", "result": "fully replaces use of BGJ398"}, {"measurement": "Replacement of BGJ398 in neuromesoderm formation", "setting": "[2]; with LDN193189 and CHIR99021", "result": "fully replaces use of BGJ398"}]}
{"smiles": "COc1nccc(-c2c(-c3ccc(F)cc3)ncn2C2CCC(O)CC2)n1", "note": "(stereo not drawn) [SB239063]", "values": [{"measurement": "Effect on NE formation of inhibitors of FGF signaling cascade components", "setting": "[1]", "result": "had no effect"}]}
{"smiles": "Cc1c[nH]c(C=C2C(=O)Nc3ccccc32)c1CCC(=O)O", "note": "[SU5402, 3-[4-Methyl-2-(2-oxo-1,2-dihydro-indol-3-ylidenemethyl)-1H-pyrrol-3-yl]-propionic acid]", "values": [{"measurement": "SOX1-positivity (cells)", "setting": "[1]; 24-hour cultures, SU5402 compounded with LDN 193189 and A8-30-1", "result": "greater than 90%"}, {"measurement": "NANOG positivity compared to undifferentiated control cultures", "setting": "[1]; [3]", "result": "reduced NANOG positivity"}, {"measurement": "SOX2 expression", "setting": "[1]; [3]", "result": "maintained"}, {"measurement": "Outcome of continued culture", "setting": "[1]; additional 48 hours, SU5402 with LDN 193189 and A8-30-1, data not shown", "result": "resulted in cell death"}]}
